How the values were obtained:
[1] = Cytotoxicity by the MTT method, SGC-7901; format: cell-based; conditions: human, SGC-7901 cells (human gastric cell line), 36 h incubation with compound
Procedure: (§1) The cytotoxic activity of compounds 1–3 and 5–8 against human cervical cancer cell lines (Hela), human hepatic carcinoma cell lines (BEL-7402), leukemia cell lines (K562), and human gastric cell lines (SGC-7901) was assayed by the MTT method ([Mosmann, 1983]; [Wang et al., 2013]). These cell lines were purchased from Shang Hai Cell Bank of Chinese Academy of Sciences. Hela, BEL-7402, K562, and SGC-7901 cell lines were cultured in RPMI-1640 with 10% FBS under a humidified atmosphere of 5% CO2 and 95% air at 37°C, and 198 μl of the cell suspension was plated in 96-well microtiter plates. After being incubated for 24 h, 2 μl of the test solutions in DMSO was added to each well and further incubated for 36 h. The MTT solution (20 μl, 5 mg/ml in IPMI-1640 medium) was then added to each well and further incubated for 4 h. Finally, the medium containing MTT (150 μl) was gently replaced by DMSO and pipetted to dissolve any formazan crystals formed. Absorbance was then determined on a Multiskan FC photometric microplate reader (Thermo Fisher Scientific) at 570 nm. Adriamycin was used as the positive control drug.

[2] = Cytotoxicity by the MTT method, BEL-7402; format: cell-based; conditions: human, BEL-7042 (printed in table; BEL-7402 in text) cells, 36 h incubation with compound
Procedure: as §1

[3] = Cytotoxicity by the MTT method, K562; format: cell-based; conditions: human, K562 cells (leukemia cell line), 36 h incubation with compound
Procedure: as §1

[4] = Cytotoxicity by the MTT method, Hela; format: cell-based; conditions: human, HeLa cells (human cervical cancer cell line), 36 h incubation with compound
Procedure: as §1

[5] = target: α-glucosidase (from baker's yeast); assay: α-Glycosidase inhibitory activity (p-nitrophenyl α-D-glucopyranoside substrate); format: biochemical; conditions: α-glucosidase 0.2 U/ml, phosphate buffer pH 6.8, pNPG substrate, 37°C 15 min, absorbance 405 nm
Procedure: A mixture including 25 μl of different compounds (final concentrations of 0.0625, 0.125, 0.25, 0.5, and 1.0 mM), 25 μl of α-glucosidase (0.2 U/ml, from baker’s yeast, Sigma), and 175 μl phosphate buffer (pH 6.8) was left to stand for 10 min at room temperature in a 96-well plate, and then 25 μl of 23.2 mM p-nitrophenyl α-D-glucopyranoside (Sigma-Aldrich) was added and further incubated at 37°C for 15 min. Finally, the absorbance was measured at 405 nm to determine the amount of p-nitrophenol cleaved by the enzyme using a Synergy H1 Hybrid Multi-Mode Microplate Reader (BioTek Instruments, Inc.). The control was prepared by adding phosphate buffer instead of the sample in the same way as the test. The blank was prepared by adding phosphate buffer instead of α-glucosidase using the same method.

`COc1cccc2c1C(=O)c1c(O)c3c(c(O)c1C2=O)C[C@@](O)(C(=O)CO)C[C@@H]3O[C@H]1C[C@H](N)[C@H](O)[C@H](C)O1` [Adriamycin, reference compound] showed an IC50 at 36 h [1] of 0.22 ± 0.01 µM, an IC50 at 36 h [2] of 0.47 ± 0.01 µM and an IC50 at 36 h [3] of 0.1 ± 0.01 µM. It also gave an IC50 at 36 h [4] of 0.28 ± 0.01 µM.
With `CC(O)(CCC(=O)O)CCc1cc(C(=O)O)ccc1O` (stereo not drawn) [Compound 1, cladoslide A] the IC50 at 36 h [1] was greater than 100 µM, the IC50 at 36 h [2] was greater than 100 µM and the IC50 [5] was 320 ± 10 µM. The IC50 at 36 h [3] was 13.1 ± 0.08 µM and the IC50 at 36 h [4] was greater than 100 µM.
Molecule `COC(=O)CCC(C)(O)CCc1cc(C(=O)O)ccc1O` (stereo not drawn) [Compound 2, cladoslide B] has an IC50 at 36 h [1] greater than 100 µM, an IC50 at 36 h [2] greater than 100 µM and an IC50 [5] greater than 1000 µM. For the same molecule, the IC50 at 36 h [3] was greater than 100 µM and the IC50 at 36 h [4] was greater than 100 µM.
`CC(C)C[C@H](NC(=O)c1nc(C(=O)O)cc2c1[nH]c1ccccc12)C(=O)O` [Compound 3, cladospomine] gave an IC50 at 36 h [1] greater than 100 µM, an IC50 at 36 h [2] greater than 100 µM and an IC50 [5] greater than 1000 µM. The IC50 at 36 h [3] was greater than 100 µM and the IC50 at 36 h [4] was greater than 100 µM.
For `CC(=O)NCC(=O)c1c[nH]c2ccccc12` [Compound 5, N-acetyl-β-oxotryptamine], the IC50 at 36 h [1] was greater than 100 µM, the IC50 at 36 h [2] was greater than 100 µM and the IC50 [5] was 170 ± 10 µM. For the same molecule, the IC50 at 36 h [3] was greater than 100 µM and the IC50 at 36 h [4] was greater than 100 µM.
`C[C@@H](O)CCCCC[C@H](O)[C@@H]1C=CC(=O)O1` [Compound 6, (4S,5S,11R)-iso-cladospolide B] gave an IC50 at 36 h [1] greater than 100 µM, an IC50 at 36 h [2] greater than 100 µM and an IC50 [5] greater than 1000 µM. The IC50 at 36 h [3] was greater than 100 µM and the IC50 at 36 h [4] was greater than 100 µM.
With `C[C@H](O)CCCCC[C@H](O)[C@@H]1C=CC(=O)O1` [Compound 7, (4S,5S,11S)-iso-cladospolide B] the IC50 at 36 h [1] was greater than 100 µM, the IC50 at 36 h [2] was greater than 100 µM and the IC50 [5] was greater than 1000 µM. The IC50 at 36 h [3] was greater than 100 µM and the IC50 at 36 h [4] was greater than 100 µM.
`C[C@@H](O)CCCCC[C@H](O)[C@H]1C=CC(=O)O1` [Compound 8, (4R,5S,11R)-iso-cladospolide B] showed an IC50 at 36 h [1] greater than 100 µM, an IC50 at 36 h [2] greater than 100 µM and an IC50 [5] greater than 1000 µM. The IC50 at 36 h [3] was greater than 100 µM and the IC50 at 36 h [4] was greater than 100 µM.

— paper PMC8717711, “Metabolites From the Mangrove-Derived Fungus Cladosporium sp. HNWSW-1” (Frontiers in Chemistry, 2021)
